From patent US8710246B2, “Substituted thiophene pentamers” (Biochromix Newco AB, priority 2008, dated 2014)
“Also recorded” adds a separate entry of the source.

Experiments:
[1] = target: T1, Aβ peptide 1-42 (Homo sapiens, UniProt P05067); assay: In vitro fibrillation of Aβ peptide 1-42 followed by TEM; assay type: biochemical; conditions: for fibrillation morphology by TEM: 100 μM compound, 20 μM Aβ 1-42, 37° C.
T1 construct: Aβ peptide 1-42 was dissolved in hexafluoroisopropanol
Protocol: Aβ peptide 1-42 was dissolved in hexafluoroisopropanol to a concentration of 1 mg/mL and further diluted to 20 μM in Tris-HCl 5 mM, 75 mM NaCl. The inventive compounds F and G were added in concentrations from 10 to 100 μM and the samples, including references without the inventive compounds, were incubated at 37° C. to initiate fibrillation. After Oh, 20 h and 66 h aliquots were withdrawn, deposited on formvar-carbon coated TEM grids and negatively stained using uranylacetate. A Phillips CM200 run at 200 kV was used to study the progress of fibrillation in the different samples. […] (at Oh). […] These aggregates were covering most of the TEM grid and no smaller fibril or oligomer like structures could be seen. After 66 h of incubation no major change in morphology compared to the 20 h samples could be seen, sheets with separate visible fibrils were found at high density on the grid, of a typical morphology illustrated in FIG. 3.

[2] = 14 days treatment, biodistribution by HPLC-MS/MS; assay type: in vivo, mice
Protocol: (§1) Starting at 4 months of age, female hAPPSL mice were treated with vehicle only or p-FTAA in 3 dosages for 14 days. 40 hAPP Tg mice plus 4 reserves allocated to 4 different treatment groups were treated with either vehicle only (control) or with p-FTAA in dosages of 0.1 mg/kg/day, 1 mg/kg/day, or 10 mg/kg/day. Vehicle and T.I.s were administered twice daily intra peritoneal (ip) for 14 days.
The biodistribution of p-FTAA in the mice was assessed by determining the parent compound in the right brain hemisphere (without cerebellum), liver, kidney, and plasma of the treated animals. p-FTAA was determined in all the matrices by different bioanalytical methods involving HPLC-MS/MS. Each method was characterized in terms of specificity, linearity, accuracy and precision in order to give reliable results.
Tissue Sampling: After the last treatment, animals were sacrificed. Each treatment group was divided in 3 sampling points resulting in 3-4 animals per sampling point per group (time points below refer to the time point of CSF sampling):
1) Immediately before last dosing on day 14 (predose)
2) 0.5 hours after last dosing on day 14
3) 3 hours after last dosing on day 14
From each animal, CSF, blood, brains, liver, and kidney were collected. Therefore, mice were sedated by standard inhalation anesthesia (Isofluran, Baxter)

[3] = test system: Human Aβ38, Aβ40 and Aβ42; assay: 30 days treatment, human Aβ determinations in CSF and brain homogenate SDS fraction (Mesoscale immunosorbent assay); assay type: in vivo, mice
Protocol: as §1, with “at 8” for “at 4”, “for 30” for “for 14”, “days. The Test Item (T.I.) p-FTAA was administered in 3 dosages in Vehicle. 48” for “days. 40”, “mg/kg/day. As an additional control, 12 nTg littermates of the hAPPSL mice (plus 1 reserve) were treated with vehicle only.” for “mg/kg/day.”, “peritoneal (i.p.)” for “peritoneal (ip)”
Human Aβ38, Aβ40 and Aβ42 were determined in homogenates of the left brain hemispheres and in CSF samples of all Tg animals by an immunosorbent assay from Mesoscale Discovery
48 hAPP Tg mice plus 4 reserves allocated to 4 different treatment groups were treated with either vehicle only (control) or p-FTAA. As an additional control, 12 nTg littermates of the hAPPSL mice (plus 1 reserve) were treated with vehicle only. Tg hAPPSL mice with a C57BL/6xDBA background and corresponding nTg littermates at an age of 8 months (±2 weeks) were randomly assigned to the treatment groups.
Left hemi-brain samples (without cerebellum) of Tg animals were homogenized and separated. SDS fraction was prepared, after thawing, hemispheres were homogenized with the Homogenizer “Ultra Turrax T8” at highest speed in TBS (20 mM Tris, 137 mM NaCl, pH=7.6; containing protease inhibitor cocktail; 100 mg brain wet weight per ml TBS). One aliquot (1 ml) was centrifuged (74,200×g for 1 h at 4° C.). The pellets were suspended in 1 ml SDS (2% SDS in Aqua bidest), centrifuged as above and the supernatants were kept at −20° C. (SDS fraction).
In the brain homogenate SDS fraction and in CSF of each Tg mouse, human Aβ38, Aβ40 and Aβ42 levels were measured with a Aβ-kit from Mesoscale Discovery. Aβ levels were evaluated in comparison to a peptide standard as pg/mg brain (wet weight) or pg/ml CSF.
Descriptive statistical analysis was performed on all evaluated parameters. Data were represented as mean±standard deviation (SD). Grubb's test was used to detect outliers. Normality distribution of the values was tested with Kolmogorov Smirnov normality distribution test. Group differences between all Tg groups were calculated by a parametric ANOVA followed by a Bonferroni post test.

[4] = test system: Aβ38, Aβ40 or Aβ42; assay: 14 days treatment, DEA extraction of soluble amyloid beta from brain homogenates; assay type: in vivo; conditions: data not shown
From the text: We also noted, data not shown, that p-FTAA treatment for 14 days, in 4 months old female […] transgenic mice, led to decreased Aβ38, Aβ40 or Aβ42 levels in the DEA Extraction of [soluble] Amyloid beta from brain homogenates.

T1 sequence (P05067 672-713 limits assumed): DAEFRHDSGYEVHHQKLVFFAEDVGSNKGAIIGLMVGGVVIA

O=C(O)Cc1cc(-c2ccc(C(=O)O)s2)sc1-c1ccc(-c2sc(-c3ccc(C(=O)O)s3)cc2CC(=O)O)s1 [Compound F]
fibrillation morphology by TEM ([1]; 20 h): no dense aggregates resembling those in the reference sample | fibrillation morphology by TEM ([1]; 66 h): no separate fibrils could be found; also recorded: dense aggregates where no fibrils can be seen | effect on the fibrillation of Aβ peptide 1-42 ([1]; overall conclusion, 20 h and 66 h): major effect | systemic exposure ([2]; 0.1, 1, 10 mg/kg/day ip for 14 days, plasma): exposed systemically to p-FTAA at all dose levels | crossing of the blood-brain barrier (brain levels) ([2]; after ip administration, 14 days): crossed the blood-brain barrier | elimination route suggested by tissue levels ([2]; ip, 14 days): urinary excretion is the main elimination route | exposure in the liver and in the kidney ([2]; ip, 14 days): Significant exposure | levels in kidney compared to liver ([2]; ip, 14 days): higher in the kidney compared to the liver | Aβ38, Aβ40 and Aβ42 levels in CSF compared to vehicle ([3]; 0.1 mg/kg/day ip for 30 days): lower mean Aβ levels but statistical significance was observed for Aβ38 only | Aβ38, Aβ40 and Aβ42 levels in CSF compared to vehicle ([3]; 1 mg/kg/day ip for 30 days): did not differ significantly from the vehicle control | Aβ38, Aβ40 and Aβ42 levels in CSF compared to vehicle ([3]; 10 mg/kg/day ip for 30 days, 8 months old female hAPPSL mice, listed as p-FTAA): significantly decreased; also recorded: highly significant | Aβ38, Aβ40 and Aβ42 levels in SDS brain homogenate fraction compared to vehicle ([3]; 10 mg/kg/day ip for 30 days, listed as p-FTAA): significantly decreased | Aβ38, Aβ40 or Aβ42 levels in DEA extraction of soluble amyloid beta from brain homogenates ([4]; 4 months old female hAPPSL mice): decreased | dose group with the strongest effect on DEA soluble Aβ [4]: strongest for 10 mg/kg/day group
